The text below walks through data of patent publication US20220235005A1, “FUNGICIDAL N-(PYRID-3-YL)CARBOXAMIDES” (BASF SE, priority 2019, published 2022).

One may read the melting point as the temperature, or range, at which the solid turns liquid.

Regarding `Cc1cc(NC(=O)/C(=N/OCC(C)C)c2ccccc2)cnc1C` [Ex-8, (2E)-N-(5,6-dimethyl-3-pyridyl)-2-isobutoxyimino-2-phenyl-acetamide], the melting point came to 169 °C.
